Here are results for nine compounds from US20090163549A1, “Pharmaceutical Composition Comprising an Amide Derivative” (priority 2005, published 2009).

As a reminder, the IC50 is the concentration that inhibits the measured activity by half. Lower therefore signals greater potency in that assay. A word on the melting point: it is the temperature of the solid-liquid transition.

The target in one data set is T1, human TRPV1 receptors (Homo sapiens, UniProt Q8NER1).
T1 construct: expressed in transfected cells; host or cells: CHO-K1
In words: Inhibition of capsaicin-stimulated Ca2+ influx (Fluo-3, FDSS-3000) in CHO-K1 cells stably expressing human TRPV1 receptors. It is filed as cell-based. The conditions noted are these: CHO-K1 cells transfected with human TRPV1; capsaicin stimulation; Fluo-3 fluorescence. How it is done:
CHO-K1 cells were transfected with human TRPV1 receptors and a cell culture stably expressing the receptor was seeded on a medium of alpha-MEM containing FBS(10%), HEPES (20 mM), geneticin (1 mg/mL) and antibiotic-antimycotic mixed solution(1%) in 96-well plates, and incubated at 37° C. and 5% CO2 for 2-3 days.
The medium was then substituted with Lording Buffer (20 mM HEPES, 115 mM NaCl, 5.4 mM KCl 0.8 mM MgCl2, 1.8 mM CaCl2, 13.8 mM D-glucose, 2.5 mM probenecid, pH 7.4) containing Fluo-3 AM (5 μM) and incubated at 37° C. and 5% CO2 for 1 hour. The test compounds were diluted to different concentrations and added to the plates after the incubated culture was washed with Wash Buffer (20 mM HEPES, 115 mM NaCl, 5.4 mM KCl 0.8 mM MgCl2, 5.0 mM CaCl2, 13.8 mM D-glucose, 2.5 mM probenecid, 0.1% BSA, pH 7.4) and placed at room temperature for 15 minutes.
The plate was set up in Functional Drug Screening System(FDSS)-3000(Hamamatsu Photonics K.K.) and amounts of Ca^2+ influx before and after capsaicin-stimulation were measured through changes in the fluorescence intensity of Fluo-3.
An inhibitory activity was evaluated by measuring fluorescence intensity in the presence of various concentrations of the test compounds and calculating their % inhibition on the basis that the maximum fluorescence intensity is 100% inhibition when stimulated by Wash Buffer, and 0% inhibition when stimulated by capsaicin
Data analysis and calculation of IC50 values were performed with Excel(Microsoft Corporation) and XLfit(idbs).

The structures appear in SMILES notation.

T1 sequence (Q8NER1 whole entry): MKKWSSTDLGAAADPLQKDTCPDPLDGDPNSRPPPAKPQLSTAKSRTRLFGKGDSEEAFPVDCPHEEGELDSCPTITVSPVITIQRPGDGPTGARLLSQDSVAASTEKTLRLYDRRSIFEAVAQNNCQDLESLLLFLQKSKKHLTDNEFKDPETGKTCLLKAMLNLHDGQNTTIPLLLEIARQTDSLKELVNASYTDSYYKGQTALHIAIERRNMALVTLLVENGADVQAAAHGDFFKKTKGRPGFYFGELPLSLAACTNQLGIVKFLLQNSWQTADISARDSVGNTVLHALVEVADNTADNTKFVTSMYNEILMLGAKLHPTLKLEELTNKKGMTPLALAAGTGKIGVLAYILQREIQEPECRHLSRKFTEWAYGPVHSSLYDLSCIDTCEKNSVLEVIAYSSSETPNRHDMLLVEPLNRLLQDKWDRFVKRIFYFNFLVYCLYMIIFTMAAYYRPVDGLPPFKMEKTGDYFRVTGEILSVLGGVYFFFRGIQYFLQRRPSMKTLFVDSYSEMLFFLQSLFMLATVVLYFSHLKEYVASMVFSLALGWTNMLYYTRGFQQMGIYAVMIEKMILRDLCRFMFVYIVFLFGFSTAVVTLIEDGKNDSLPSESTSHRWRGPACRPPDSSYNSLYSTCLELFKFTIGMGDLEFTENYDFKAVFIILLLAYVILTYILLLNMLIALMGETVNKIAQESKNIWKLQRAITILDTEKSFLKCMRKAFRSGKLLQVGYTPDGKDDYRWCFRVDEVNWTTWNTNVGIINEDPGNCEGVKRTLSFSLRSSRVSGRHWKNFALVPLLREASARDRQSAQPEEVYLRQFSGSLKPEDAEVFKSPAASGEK

Turning to `CC(C)(C)c1ccc(NC(=O)c2ccc(C3(C)NCCO3)cc2)cc1` (centres unmarked) [Ic-1], the melting point is 138 to 139 °C. The IC50 against human TRPV1 receptors was 0.25 µM.

For the compound `CC(C)(C)c1ccc(NC(=O)c2ccc(C3(C)NCCS3)cc2)cc1` (centres unmarked) [Ib-2], the melting point lay within 152 to 153 °C. This compound also had an IC50 against human TRPV1 receptors of 0.19 µM.

As to `CC(C)(C)c1ccc(NC(=O)c2ccc(C3NOC(=O)N3)cc2)cc1` (centres unmarked) [Ih-1, N-(4-tert-butylphenyl)-4-(5-oxo-1,2,4-oxadiazolidine-3-yl)benzamide], the melting point was over 300 °C.

Compound `CC(C)(C)c1ccc(NC(=O)c2ccc(C3NCCS3)cc2)cc1` (centres unmarked) [Ib-1] displayed a melting point of 119 to 120 °C. For the same compound, on human TRPV1 receptors, 0.21 µM corresponded to half-maximal inhibition (IC50).

In turn, `CON=C(C)c1ccc(C(=O)Nc2ccc(C(C)(C)C)cc2)cc1` [Ij-4, N-(4-tert-butylphenyl)-4-(1-methoxyiminoethyl)benzamide] yielded a melting point of 154 to 155 °C. This compound also returned an IC50 on human TRPV1 receptors of 0.163 µM.

Regarding `CC(C)(C)c1ccc(NC(=O)c2ccc(C3(C)OCCO3)cc2)cc1` [Ie-2], the melting point fell in the range of 180 to 189 °C. At human TRPV1 receptors, this compound displayed an IC50 of 0.23 µM.

In the case of `CC(C)(C)c1ccc(NC(=O)c2ccc(C3=NCCS3)cc2)cc1` [If-1, N-(4-tert-butylphenyl)-4-(2-thiazolinyl)benzamide], the melting point fell in the range of 176 to 177 °C. For the same compound, the midpoint of inhibition against human TRPV1 receptors, the IC50, lay at 0.006 µM.

As to `CC(C)(C)c1ccc(NC(=O)c2ccc(C3OCCCO3)cc2)cc1` [Ia-1], the melting point fell in the range of 165 to 166 °C. The compound also had an IC50 at human TRPV1 receptors of 0.176 µM.

As for `CC(C)(C)c1ccc(NC(=O)c2ccc(C3(C)OCCCO3)cc2)cc1` [Ia-2, N-(4-tert-butylphenyl)-4-(2-methyl-1,3-dioxane-2-yl)benzamide], the melting point is 148 to 149 °C. At human TRPV1 receptors, this compound displayed an IC50 of 0.297 µM.
